Several values for one entry are separate records, joined by “and”; a condition that tells them apart may be missing. Equal entries are not always repeated. Structures can show the parent of a compound that is named as a salt.
Experiments:
ZR-75-1 Tam1 [1] = test: relative IC50 (midpoint of fitted logistic curve, plateau may be below 50% inhibition; CellTiter-Glo viability); higher = less potent; details: 4-OH-tamoxifen in medium 1 µM; 72 h
Outline: (§1)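 After seeding into 384-well plates with library drugs at five concentrations spanning a 10 000-fold range, breast cancer cell lines and their resistant derivatives were incubated 72 h at 37 °C. Resistant lines received medium with 1 μM of the selecting drug. CellTiter-Glo signal was read on a PHERAstar and scaled to vehicle-only and positive controls. Drug sensitivity score, relative IC50 (the curve midpoint) and top-dose inhibition came from logistic fits run in the Breeze pipeline.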

BT-474 Tam2 [2] = test: as above; details: 4-OH-tamoxifen in medium 1 µM; 72 h
Outline: as §1

T-47D [3] = test: as above; details: 72 h
Outline: as §1

T-47D Tam2 [4] = test: as above; details: 4-OH-tamoxifen in medium 1 µM; 72 h
Outline: as §1

ZR-75-1 [5] = test: as above; details: 72 h
Outline: as §1

MCF-7 Tam1 [6] = test: as above; details: 4-OH-tamoxifen in medium 1 µM; 72 h
Outline: as §1

MCF-7 [7] = test: as above; details: 72 h
Outline: as §1

ZR-75-1 Tam2 [8] = test: as above; details: 4-OH-tamoxifen in medium 1 µM; 72 h
Outline: as §1

T-47D Tam1 [9] = test: as above; details: 4-OH-tamoxifen in medium 1 µM; 72 h
Outline: as §1

BT-474 [10] = test: drug sensitivity score (DSS) (DSS (dimensionless)); higher = more sensitive; extreme values may be limits of the assay; details: 72 h
Outline: as §1

BT-474 Tam1 [11] = test: as above; details: 4-OH-tamoxifen in medium 1 µM; 72 h
Outline: as §1

ZR-75-1 Tam1 [12] = test: as above; details: 4-OH-tamoxifen in medium 1 µM; 72 h
Outline: as §1

BT-474 Tam2 [13] = test: as above; details: 4-OH-tamoxifen in medium 1 µM; 72 h
Outline: as §1

T-47D [14] = test: as above; details: 72 h
Outline: as §1

T-47D Tam2 [15] = test: as above; details: 4-OH-tamoxifen in medium 1 µM; 72 h
Outline: as §1

ZR-75-1 [16] = test: as above; details: 72 h
Outline: as §1

MCF-7 Tam1 [17] = test: as above; details: 4-OH-tamoxifen in medium 1 µM; 72 h
Outline: as §1

MCF-7 [18] = test: as above; details: 72 h
Outline: as §1

ZR-75-1 Tam2 [19] = test: as above; details: 4-OH-tamoxifen in medium 1 µM; 72 h
Outline: as §1

T-47D Tam1 [20] = test: as above; details: 4-OH-tamoxifen in medium 1 µM; 72 h
Outline: as §1

BT-474 [21] = test: relative IC50 (midpoint of fitted logistic curve, plateau may be below 50% inhibition; CellTiter-Glo viability); higher = less potent; details: 72 h
Outline: as §1

BT-474 Tam1 [22] = test: as above; details: 4-OH-tamoxifen in medium 1 µM; 72 h
Outline: as §1

SMILES | relative IC50 (BT-474 Tam2 [2]) | relative IC50 (T-47D [3]; 4-OH-tamoxifen in medium 0 µM) | relative IC50 (T-47D [3]; 4-OH-tamoxifen in medium 1 µM) | relative IC50 (T-47D Tam2 [4]) | relative IC50 (MCF-7 Tam1 [6]) | relative IC50 (MCF-7 [7]; 4-OH-tamoxifen in medium 0 µM) | relative IC50 (MCF-7 [7]; 4-OH-tamoxifen in medium 1 µM) | relative IC50 (T-47D Tam1 [9]) | relative IC50 (BT-474 [21]; 4-OH-tamoxifen in medium 0 µM) | relative IC50 (BT-474 [21]; 4-OH-tamoxifen in medium 1 µM) | relative IC50 (BT-474 Tam1 [22]) | relative IC50 (ZR-75-1 Tam1 [1]) | relative IC50 (ZR-75-1 [5]; 4-OH-tamoxifen in medium 0 µM) | relative IC50 (ZR-75-1 [5]; 4-OH-tamoxifen in medium 1 µM) | relative IC50 (ZR-75-1 Tam2 [8]) | drug sensitivity score (BT-474 [10]; 4-OH-tamoxifen in medium 0 µM) | drug sensitivity score (BT-474 [10]; 4-OH-tamoxifen in medium 1 µM) | drug sensitivity score (BT-474 Tam1 [11]) | drug sensitivity score (ZR-75-1 Tam1 [12]) | drug sensitivity score (BT-474 Tam2 [13]) | drug sensitivity score (T-47D [14]; 4-OH-tamoxifen in medium 0 µM) | drug sensitivity score (T-47D [14]; 4-OH-tamoxifen in medium 1 µM) | drug sensitivity score (T-47D Tam2 [15]) | drug sensitivity score (ZR-75-1 [16]; 4-OH-tamoxifen in medium 0 µM) | drug sensitivity score (ZR-75-1 [16]; 4-OH-tamoxifen in medium 1 µM) | drug sensitivity score (MCF-7 Tam1 [17]) | drug sensitivity score (MCF-7 [18]; 4-OH-tamoxifen in medium 0 µM) | drug sensitivity score (MCF-7 [18]; 4-OH-tamoxifen in medium 1 µM) | drug sensitivity score (ZR-75-1 Tam2 [19]) | drug sensitivity score (T-47D Tam1 [20])
C[C@@]1(C(=O)Nc2ccc(F)nc2)CCCN1c1nc(Nc2cc(C3CC3)n[nH]2)c2cccn2n1 | > 10000 nM | 921 nM | 210 nM | 1140 nM | 197 nM | 78.9 nM | 80.2 nM | 1160 nM | – | – | – | > 10000 nM | > 10000 nM | > 10000 nM | > 10000 nM | 0.215 | 0.473 | 0.49 | 0 | 0 | 5.37 | 7.74 | 6.16 | 0 | 0 | 13.2 | 17.7 | 21 | 0 | 4.88
Cc1cnc(NC(=O)Nc2cc(Br)c(C)cc2OC[C@@H]2CNCCO2)cn1 | > 1000 nM | > 1000 nM | > 1000 nM | > 1000 nM | > 1000 nM | – | – | > 1000 nM | > 1000 nM | > 1000 nM | > 1000 nM | > 1000 nM | > 1000 nM | > 1000 nM | > 1000 nM | 0 | 0 | 0 | 0 | 0 | 0 | 0 | 0 | 0 | 0 | 0 | 2.37 | 0.181 | 0 | 0
O=C(Nc1c[nH]nc1-c1nc2ccc(CN3CCOCC3)cc2[nH]1)NC1CC1 [AT9283] | – | > 1000 nM | > 1000 nM | > 1000 nM | > 1000 nM | > 1000 nM | > 1000 nM | > 1000 nM | > 1000 nM | > 1000 nM | > 1000 nM | > 1000 nM | > 1000 nM | > 1000 nM | > 1000 nM | 0 | 0 | 0 | 0 | 0 | 0 | 0 | 0 | 0 | 0 | 0 | 0 | 0 | 0 | 0
COc1cc(CCc2cc(NC(=O)c3ccc(N4CC(C)NC(C)C4)cc3)n[nH]2)cc(OC)c1 (stereo not drawn) [AZD4547] | > 1000 nM | > 1000 nM | > 1000 nM | > 1000 nM | > 1000 nM | > 1000 nM | > 1000 nM | > 1000 nM | > 1000 nM | > 1000 nM | – | > 1000 nM | > 1000 nM | > 1000 nM | > 1000 nM | 0 | 0 | 0 | 0 | 0 | 0 | 0 | 0 | 0 | 0 | 0 | 0 | 0 | 0 | 0
Cc1cc2c(F)c(Oc3ncnn4cc(OC[C@@H](C)O)c(C)c34)ccc2[nH]1 [Brivanib] | > 1000 nM | > 1000 nM | > 1000 nM | > 1000 nM | > 1000 nM | > 1000 nM | > 1000 nM | > 1000 nM | > 1000 nM | > 1000 nM | – | > 1000 nM | > 1000 nM | > 1000 nM | > 1000 nM | 0 | 0 | 0 | 0 | 0 | 0 | 0 | 0 | 0 | 0 | 0 | 0 | 0 | 0 | 0

Further lines, with some results ahead:

relative IC50 (BT-474 Tam2 [2]) | relative IC50 (T-47D [3]; 4-OH-tamoxifen in medium 0 µM) | relative IC50 (T-47D [3]; 4-OH-tamoxifen in medium 1 µM) | relative IC50 (T-47D Tam2 [4]) | relative IC50 (MCF-7 Tam1 [6]) | relative IC50 (MCF-7 [7]; 4-OH-tamoxifen in medium 0 µM) | relative IC50 (MCF-7 [7]; 4-OH-tamoxifen in medium 1 µM) | relative IC50 (T-47D Tam1 [9]) | relative IC50 (BT-474 [21]; 4-OH-tamoxifen in medium 0 µM) | relative IC50 (BT-474 [21]; 4-OH-tamoxifen in medium 1 µM) | relative IC50 (BT-474 Tam1 [22]) | SMILES | relative IC50 (ZR-75-1 Tam1 [1]) | relative IC50 (ZR-75-1 [5]; 4-OH-tamoxifen in medium 0 µM) | relative IC50 (ZR-75-1 [5]; 4-OH-tamoxifen in medium 1 µM) | relative IC50 (ZR-75-1 Tam2 [8]) | drug sensitivity score (BT-474 [10]; 4-OH-tamoxifen in medium 0 µM) | drug sensitivity score (BT-474 [10]; 4-OH-tamoxifen in medium 1 µM) | drug sensitivity score (BT-474 Tam1 [11]) | drug sensitivity score (ZR-75-1 Tam1 [12]) | drug sensitivity score (BT-474 Tam2 [13]) | drug sensitivity score (T-47D [14]; 4-OH-tamoxifen in medium 0 µM) | drug sensitivity score (T-47D [14]; 4-OH-tamoxifen in medium 1 µM) | drug sensitivity score (T-47D Tam2 [15]) | drug sensitivity score (ZR-75-1 [16]; 4-OH-tamoxifen in medium 0 µM) | drug sensitivity score (ZR-75-1 [16]; 4-OH-tamoxifen in medium 1 µM) | drug sensitivity score (MCF-7 Tam1 [17]) | drug sensitivity score (MCF-7 [18]; 4-OH-tamoxifen in medium 0 µM) | drug sensitivity score (MCF-7 [18]; 4-OH-tamoxifen in medium 1 µM) | drug sensitivity score (ZR-75-1 Tam2 [19]) | drug sensitivity score (T-47D Tam1 [20])
> 1000 nM | > 1000 nM | – | > 1000 nM | > 1000 nM | – | > 1000 nM | > 1000 nM | > 1000 nM | 304 nM | – | COc1cc2c(Oc3ccc4[nH]c(C)cc4c3F)ncnc2cc1OCCCN1CCCC1 [Cediranib (AZD2171, Recentin)] | > 1000 nM | > 1000 nM | > 1000 nM | > 1000 nM | 0 | 2.04 | 0.271 | 0 | 0 | 0 | 0.609 | 0 | 0 | 0 | 0 | 0.0072 | 0 | 0 | 0
– | 7.21 nM | 13.2 nM | 14.7 nM | > 1000 nM | 19 nM | 54.1 nM | 3.87 nM | – | 74.3 nM | 94.3 nM | O=C(/C=C/c1cccnc1)NCCCCC1CCN(C(=O)c2ccccc2)CC1 [Daporinad (FK-866 HCl)] | > 1000 nM | > 1000 nM | > 1000 nM | > 1000 nM | 0 | 8.73 | 5.63 | 0 | 1.29 | 24.1 | 20.7 | 18.9 | 0 | 0 | 0 | 15.8 | 10.4 | 0 | 27.2
> 1000 nM | > 1000 nM | 41.6 nM | 9.43 nM and 16.4 nM | > 1000 nM | > 1000 nM | > 1000 nM | 10.3 nM and 10.7 nM | > 1000 nM | > 1000 nM | 130 nM and 374 nM | Cc1nc(Nc2ncc(C(=O)Nc3c(C)cccc3Cl)s2)cc(N2CCN(CCO)CC2)n1 [Dasatinib] | > 1000 nM | > 1000 nM | > 1000 nM | > 1000 nM | 0 | 0 | 2.9 and 1.26 | 0 | – | 0 | – | 8.11 and 4.97 | 0 | 0 | 0 | – | – | 0 | 8.54 and 7.6

Source: the supplement of paper PMC4932681
